{"source": "patent US4192896A", "about": "“Method of using dialkylphenols in the treatment of mycoplasma diseases” (priority 1979, dated 1980)", "key": {"[1]": {"test_system": "uninfected hamster tracheal explants", "assay": "Relative activity (explant viability: epithelial integrity x ciliary vigor) of uninfected hamster tracheal explants exposed to 2,4-DMP (toxicity)", "type": "cell-based, golden hamster", "settings": "uninfected explants, 10^-5 moles/liter, scale 0 to 300", "description": "(§1) Adult golden hamsters (approximately 140 g. male and female) were used as the tissue source. Animals appearing to be disease-free were selected. Tracheas were removed aseptically and sliced into rings. The rings were rinsed and then transfered into sterile Petri dishes containing a shallow layer of minimal essential medium (MEM, with glutamine, NaHCO3, 10% horse serum and 500 units of penicillin G/ml). These organ cultures were incubated for 24 hours at 36° C. in 5% carbon dioxide and then scored for \"relative activity\" (RA), a measure of explant viability. \"Relative Activity\" (0 to 300) is the product of the percentage of the epithelial layer which is intact (0 to 100) and the relative vigor of ciliary beating (0 to 3).\nBefore undertaking further studies the determination of the toxicity of 2,4-DMP toward hamster tracheal explants and Mycoplasma pneumoniae is necessary."}, "M. pneumoniae [2]": {"test_system": "M. pneumoniae", "assay": "Tetrazolium reduction by hamster tracheal explants infected with M. pneumoniae", "type": "cell-based", "settings": "for Tetrazolium Reduction 7 days post infection: Table 4, infecting titer 6 × 10^6 CFU/ml", "description": "(§2) The trachea rings were infected with M. pneumonia, strain PI 1428 (originally obtained from Dr. Robert Chanock, National Institutes of Health, Bethesda, Md.) which was used in the 10th to 12th passage and was grown on G-199 medium. Tracheal explants were infected with logarithmically growing cells using methods described by Gabridge, et al. Except where otherwise noted, groups of from 3 to 6 rings were preincubated for one hour in MEM with or without an appropriate amount of 2,4-dimethylphenol prior to the addition of mycoplasmas. Following exposure to M. pneumoniae for two hours, the rings were rinsed twice in phosphate buffered saline and then placed in a sterile Petri dish containing MEM and, where indicated, the required amount of 2,4-dimethylphenol or 2,4-DMP as used herein. Cultures were incubated at 36° in 5% carbon dioxide and scored daily for RA.\n(§3) Time Course: In the studies reported thus far, tracheal explants were pretreated with 2,4-DMP for one hour before exposure to M. pneumoniae. Some insight into the nature, that is, the site or mode of action, of this protective phenomenon may be gained by altering the time at which 2,4-DMP is added to the culture media."}, "M. pneumoniae [3]": {"test_system": "M. pneumoniae", "assay": "Relative activity of hamster tracheal explants infected with M. pneumoniae", "type": "cell-based", "settings": "for Relative Activity Days Following Infection With M. Pneumoniae / Relative Activity 7 days post infection: infecting titer 6 × 10^6 CFU/ml; for Relative Activity 7 days post infection: Table 4", "description": "as §1, §2\nInfection Studies: M. pneumoniae attaches to the surface (as used herein the surface refers to in luminal epithelial lining) of the tracheal tissue within an hour or two following exposure. Decreases in the vigor of ciliary activity and loss of epithelial cells are evident within 24 to 48 hours post-infection. In most cases, little or no ciliary activity remains by the sixth or seventh day.\nas §3"}, "[4]": {"test_system": "uninfected hamster tracheal explants", "assay": "Electron microscopic and histopathic examination of uninfected hamster tracheal explants exposed to 2,4-DMP", "type": "cell-based, golden hamster", "settings": "10^-3 and 10^-4 M", "description": "as §1"}, "[5]": {"settings": "culture A, 2,4 DMP added at -1 hours"}, "[6]": {"settings": "culture B, 2,4 DMP added at 0 hours"}, "[7]": {"settings": "culture C, 2,4 DMP added at 1 hours"}, "[8]": {"settings": "culture D, 2,4 DMP added at 2 hours"}, "[9]": {"settings": "culture E, 2,4 DMP added at 6 hours"}, "[10]": {"settings": "culture F, 2,4 DMP added at 24 hours"}, "[11]": {"settings": "culture G, 2,4 DMP added at 48 hours"}, "[12]": {"settings": "culture H, 2,4 DMP added at 72 hours"}}}
{"smiles": "Cc1ccc(O)c(C)c1", "note": "[2,4-DMP, 2,4-dimethylphenol]", "values": [{"measurement": "Relative activity following days of incubation with 2,4-DMP", "setting": "[1]; day 3", "result": "264 ± 13"}, {"measurement": "Relative activity following days of incubation with 2,4-DMP", "setting": "[1]; day 4", "result": "270 ± 0"}, {"measurement": "Relative activity following days of incubation with 2,4-DMP", "setting": "[1]; day 5", "result": "264 ± 13"}, {"measurement": "Relative activity following days of incubation with 2,4-DMP", "setting": "[1]; day 6", "result": "258 ± 16"}, {"measurement": "Relative activity following days of incubation with 2,4-DMP", "setting": "[1]; day 7", "result": "252 ± 16"}, {"measurement": "Tetrazolium Reduction 7 days post infection", "setting": "M. pneumoniae [2]; 10^-8 moles/liter", "result": "1.066 ± 0.035"}, {"measurement": "Tetrazolium Reduction 7 days post infection", "setting": "M. pneumoniae [2]; 10^-9 moles/liter", "result": "1.016 ± 0.029"}, {"measurement": "Tetrazolium Reduction 7 days post infection", "setting": "M. pneumoniae [2]; 10^-10 moles/liter", "result": "0.543 ± 0.142"}, {"measurement": "Tetrazolium Reduction 7 days post infection", "setting": "M. pneumoniae [2]; 10^-22 moles/liter (so in the source)", "result": "0.453 ± 0.033"}, {"measurement": "ability to reduce tetrazolium of rings exposed to M. pneumoniae compared with uninfected controls", "setting": "M. pneumoniae [2]; at least 10^-9 M", "result": "indistinguishable from uninfected controls"}, {"measurement": "Tetrazolium Reduction 7 Days Following Infection With M. Pneumoniae", "setting": "M. pneumoniae [2]; [5]", "result": "1.071 ± 0.065", "unit": "OD/mg"}, {"measurement": "Tetrazolium Reduction 7 Days Following Infection With M. Pneumoniae", "setting": "M. pneumoniae [2]; [6]", "result": "1.068 ± 0.050", "unit": "OD/mg"}, {"measurement": "Tetrazolium Reduction 7 Days Following Infection With M. Pneumoniae", "setting": "M. pneumoniae [2]; [7]", "result": "1.062 ± 0.039", "unit": "OD/mg"}, {"measurement": "Tetrazolium Reduction 7 Days Following Infection With M. Pneumoniae", "setting": "M. pneumoniae [2]; [8]", "result": "0.893 ± 0.055", "unit": "OD/mg"}, {"measurement": "Tetrazolium Reduction 7 Days Following Infection With M. Pneumoniae", "setting": "M. pneumoniae [2]; [9]", "result": "0.722 ± 0.032", "unit": "OD/mg"}, {"measurement": "Tetrazolium Reduction 7 Days Following Infection With M. Pneumoniae", "setting": "M. pneumoniae [2]; [10]", "result": "0.386 ± 0.030", "unit": "OD/mg"}, {"measurement": "Tetrazolium Reduction 7 Days Following Infection With M. Pneumoniae", "setting": "M. pneumoniae [2]; [11]", "result": "0.379 ± 0.051", "unit": "OD/mg"}, {"measurement": "Tetrazolium Reduction 7 Days Following Infection With M. Pneumoniae", "setting": "M. pneumoniae [2]; [12]", "result": "0.381 ± 0.048", "unit": "OD/mg"}, {"measurement": "Relative Activity Days Following Infection With M. Pneumoniae", "setting": "M. pneumoniae [3]; 10^-8 moles/liter, day 1", "result": "270 ± 0"}, {"measurement": "Relative Activity Days Following Infection With M. Pneumoniae", "setting": "M. pneumoniae [3]; 10^-8 moles/liter, day 2", "result": "270 ± 0"}, {"measurement": "Relative Activity Days Following Infection With M. Pneumoniae", "setting": "M. pneumoniae [3]; 10^-8 moles/liter, day 3", "result": "260 ± 16"}, {"measurement": "Relative Activity Days Following Infection With M. Pneumoniae", "setting": "M. pneumoniae [3]; 10^-8 moles/liter, day 4", "result": "260 ± 16"}, {"measurement": "Relative Activity Days Following Infection With M. Pneumoniae", "setting": "M. pneumoniae [3]; 10^-8 moles/liter, day 5", "result": "260 ± 16"}, {"measurement": "Relative Activity Days Following Infection With M. Pneumoniae", "setting": "M. pneumoniae [3]; 10^-8 moles/liter, day 6", "result": "255 ± 16"}, {"measurement": "Relative Activity Days Following Infection With M. Pneumoniae", "setting": "M. pneumoniae [3]; 10^-8 moles/liter, day 7", "result": "255 ± 16"}, {"measurement": "Relative Activity Days Following Infection With M. Pneumoniae", "setting": "M. pneumoniae [3]; 10^-10 moles/liter, day 1", "result": "260 ± 16"}, {"measurement": "Relative Activity Days Following Infection With M. Pneumoniae", "setting": "M. pneumoniae [3]; 10^-10 moles/liter, day 2", "result": "255 ± 16"}, {"measurement": "Relative Activity Days Following Infection With M. Pneumoniae", "setting": "M. pneumoniae [3]; 10^-10 moles/liter, day 3", "result": "240 ± 19"}, {"measurement": "Relative Activity Days Following Infection With M. Pneumoniae", "setting": "M. pneumoniae [3]; 10^-10 moles/liter, day 4", "result": "175 ± 23"}, {"measurement": "Relative Activity Days Following Infection With M. Pneumoniae", "setting": "M. pneumoniae [3]; 10^-10 moles/liter, day 5", "result": "150 ± 19"}, {"measurement": "Relative Activity Days Following Infection With M. Pneumoniae", "setting": "M. pneumoniae [3]; 10^-10 moles/liter, day 6", "result": "135 ± 16"}, {"measurement": "Relative Activity Days Following Infection With M. Pneumoniae", "setting": "M. pneumoniae [3]; 10^-10 moles/liter, day 7", "result": "115 ± 23"}, {"measurement": "Relative Activity 7 days post infection", "setting": "M. pneumoniae [3]; 10^-6 moles/liter", "result": "255 ± 16"}, {"measurement": "Relative Activity 7 days post infection", "setting": "M. pneumoniae [3]; 10^-7 moles/liter", "result": "255 ± 16"}, {"measurement": "Relative Activity 7 days post infection", "setting": "M. pneumoniae [3]; 10^-8 moles/liter", "result": "260 ± 10"}, {"measurement": "Relative Activity 7 days post infection", "setting": "M. pneumoniae [3]; 10^-9 moles/liter", "result": "263 ± 12"}, {"measurement": "Relative Activity 7 days post infection", "setting": "M. pneumoniae [3]; 10^-10 moles/liter", "result": "114 ± 22"}, {"measurement": "Relative Activity 7 days post infection", "setting": "M. pneumoniae [3]; 10^-14 moles/liter", "result": "125 ± 23"}, {"measurement": "Relative Activity 7 days post infection", "setting": "M. pneumoniae [3]", "result": "124 ± 18"}, {"measurement": "RA of rings exposed to M. pneumoniae compared with uninfected controls", "setting": "M. pneumoniae [3]; at least 10^-9 M", "result": "indistinguishable from uninfected controls"}, {"measurement": "Relative Activity 7 Days Following Infection With M. Pneumoniae", "setting": "M. pneumoniae [3]; [5]", "result": "268 ± 6"}, {"measurement": "Relative Activity 7 Days Following Infection With M. Pneumoniae", "setting": "M. pneumoniae [3]; [6]", "result": "268 ± 6"}, {"measurement": "Relative Activity 7 Days Following Infection With M. Pneumoniae", "setting": "M. pneumoniae [3]; [7]", "result": "265 ± 8"}, {"measurement": "Relative Activity 7 Days Following Infection With M. Pneumoniae", "setting": "M. pneumoniae [3]; [8]", "result": "220 ± 23"}, {"measurement": "Relative Activity 7 Days Following Infection With M. Pneumoniae", "setting": "M. pneumoniae [3]; [9]", "result": "188 ± 23"}, {"measurement": "Relative Activity 7 Days Following Infection With M. Pneumoniae", "setting": "M. pneumoniae [3]; [10]", "result": "98 ± 16"}, {"measurement": "Relative Activity 7 Days Following Infection With M. Pneumoniae", "setting": "M. pneumoniae [3]; [11]", "result": "95 ± 12"}, {"measurement": "Relative Activity 7 Days Following Infection With M. Pneumoniae", "setting": "M. pneumoniae [3]; [12]", "result": "92 ± 15"}, {"measurement": "electron microscopic and histopathic examination of epithelium", "setting": "[4]", "result": "destruction of their epithelium"}]}
